Assay [1] deals with human GABAA α5β2γ1 receptor (Homo sapiens (Human), UniProt P31644+Q8N1C3). Nature of the assay: Radioligand binding assay for γ1-containing GABAA subtypes, [3H]RO7239181 competition (α5β2γ1).
The target in assay [2] is human GABAA α2β2γ1 receptor (Homo sapiens (Human), UniProt P47869+Q8N1C3). Kind of assay: Radioligand binding assay for γ1-containing GABAA subtypes, [3H]RO7239181 competition (α2β2γ1).
The target in assay [3] is human GABAA α1β3γ2 receptor (Homo sapiens (Human), UniProt P14867+P18507). Kind of assay: Radioligand binding assay for γ2-containing GABAA subtypes, [3H]Flumazenil competition (α1β3γ2). Particulars: for γ2/γ1 Selectivity Ratio: Ki α1β3γ2 (nM)/Ki α2β2γ1 (nM); for LogSel: Log[Ki α1β3γ2 (nM)/Ki α2β2γ1 (nM)].
For assay [4], the target named is α2β2γ1 GABAA receptor subtype (Homo sapiens (Human), UniProt P47869+Q8N1C3). Nature of the assay: Two-electrode voltage clamp electrophysiology in Xenopus oocytes expressing GABAA receptors (modulation of GABA EC20 current). The class given is cell-based. Particulars: for Efficacy (GABA)%: % modulation of GABA EC20 = 100*(Fold increase-1), α2β2γ1 oocytes, compound at approx. 30-fold Ki; for Fold increase h-GABA-A α2β2γ1 oocyte @ 30-fold Ki: Xenopus oocytes expressing α2β2γ1, compound at approx. 30-fold its Ki α2β2γ1, GABA EC20 current. A digest of the protocol:
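Each concentration was tested on ≥3 oocytes held at −80 mV at room temperature, recorded 3-5 days post-injection. A control and a test response to EC20 GABA (1.5 min each) were superimposed and their point-by-point ratio taken. Peak ratio reported as % modulation of GABA EC20 = 100×(fold increase−1).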
For orientation: Two-electrode voltage clamp is typically applied to oocytes expressing channels or transporters.

The mark [5] stands for this setting: Ki h-GABAA α2β2γ1, [3H]RO7239181 competition binding, human GABAA α2β2γ1.
Where [6] appears, read: Ki h-GABAA α2β2γ1, displacement of [3H]RO7239181, membranes of HEK293F cells expressing human receptors, means of two determinations.

The results in this text go back to patent publication US12365687B2 (Hoffmann-La Roche Inc., priority 2021, dated 2025).

For `C[C@@H]1N=C(c2ncccc2F)c2c(ccc(C(F)(F)F)c2Cl)-n2cc(C(=O)N[C@H]3C[C@@H](O)C3)nc21` [Example 166, (4S)-7-chloro-6-(3-fluoro-2-pyridyl)-N-(cis-3-hydroxycyclobutyl)-4-methyl-8-(trifluoromethyl)-4H-imidazo[1,2-a][1,4]benzodiazepine-2-carboxamide], the Ki (in general, the equilibrium dissociation constant of an inhibitor or competing ligand from its target) in assay [1] was found to be 9.14 nM. This molecule came in with a Ki in assay [2] (setting [5]) of 46.5 nM. The same molecule had a Ki in assay [2] (setting [6]) of 43.4 nM. In assay [3], the Ki stood at 10200 nM, the “γ2/γ1 Selectivity Ratio” value is listed as 234.5 and the LogSel amounted to 2.37. Further, in assay [4], the “Efficacy (GABA)%” value was 184% and the “Fold increase h-GABA-A α2β2γ1 oocyte @ 30-fold Ki” value stood at 2.84.

The molecule `O=C(c1nc2n(n1)-c1ccc(Cl)c(Cl)c1C(c1c(F)cccc1F)=NC2)N1CCC1` [Example 8, azetidin-1-yl-[7,8-dichloro-6-(2,6-difluorophenyl)-4H-[1,2,4]triazolo[1,5-a][1,4]benzodiazepin-2-yl]methanone] showed an inhibition constant (Ki) in assay [1] of 1.08 nM. The molecule further came in with a Ki in assay [2] (setting [5]) of 8.2 nM. For the same molecule, the Ki in assay [2] (setting [6]) was 8.2 nM. In addition, in assay [3], the affinity corresponds to a Ki of 368 nM, the “γ2/γ1 Selectivity Ratio” value was 44.7 and the LogSel is given as 1.65. In assay [4], the “Efficacy (GABA)%” value turned out to be 98% and the “Fold increase h-GABA-A α2β2γ1 oocyte @ 30-fold Ki” value worked out at 1.98.

For the molecule `C[C@@H]1N=C(c2c(F)cccc2F)c2c(ccc(Cl)c2Cl)-n2nc(C(=O)NC3COC3)nc21` [Example 55, (4S)-7,8-dichloro-6-(2,6-difluorophenyl)-4-methyl-N-(oxetan-3-yl)-4H-[1,2,4]triazolo[1,5-a][1,4]benzodiazepine-2-carboxamide], the Ki in assay [1] was found to be 1.15 nM. The molecule also displayed a Ki in assay [2] (setting [5]) of 5.4 nM. This molecule also registered a Ki in assay [2] (setting [6]) of 5.4 nM. For the same molecule, in assay [3], the affinity, expressed as Ki, was 555 nM; the “γ2/γ1 Selectivity Ratio” value stood at 102.8; the LogSel stood at 2.01. In assay [4], the “Efficacy (GABA)%” value was 58% and the “Fold increase h-GABA-A α2β2γ1 oocyte @ 30-fold Ki” value stood at 1.58.

With `CCNC(=O)c1nc2n(n1)-c1ccc(Cl)c(Cl)c1C(c1c(F)cccc1F)=N[C@H]2C` [Example 64, (4S)-7,8-dichloro-6-(2,6-difluorophenyl)-N-ethyl-4-methyl-4H-[1,2,4]triazolo[1,5-a][1,4]benzodiazepine-2-carboxamide], the inhibition constant (Ki) in assay [1] worked out at 1.16 nM. The molecule also showed a Ki in assay [2] (setting [5]) of 5.4 nM. In addition, the inhibitory constant (Ki) in assay [2] (setting [6]) is 5.4 nM. Moreover, in assay [3], affinity was put at a Ki of 889 nM, the “γ2/γ1 Selectivity Ratio” value worked out at 165.6 and the LogSel is recorded as 2.22. In addition, in assay [4], the “Efficacy (GABA)%” value worked out at 75% and the “Fold increase h-GABA-A α2β2γ1 oocyte @ 30-fold Ki” value is recorded as 1.75.

Consider `C[C@@H]1N=C(c2ncccc2F)c2c(ccc(C(F)(F)F)c2Cl)-n2cc(CO)nc21` [Example 153, [(4S)-7-chloro-6-(3-fluoro-2-pyridyl)-4-methyl-8-(trifluoromethyl)-4H-imidazo[1,2-a][1,4]benzodiazepin-2-yl]methanol], for which the Ki in assay [1] stood at 6.76 nM. The same molecule came in with a Ki in assay [2] (setting [5]) of 62.4 nM. Also, the Ki in assay [2] (setting [6]) was found to be 61.7 nM. Further, in assay [3], the Ki worked out at 6020 nM, the “γ2/γ1 Selectivity Ratio” value worked out at 97.7 and the LogSel worked out at 1.99. Further, in assay [4], the “Efficacy (GABA)%” value turned out to be 247% and the “Fold increase h-GABA-A α2β2γ1 oocyte @ 30-fold Ki” value stood at 3.47.

Turning to `COCc1cn2c(n1)CN=C(c1c(F)cccc1F)c1c-2ccc(Cl)c1Cl` [Example 5, 7,8-dichloro-6-(2,6-difluorophenyl)-2-(methoxymethyl)-4H-benzo[f]imidazo[1,2-a][1,4]diazepine], the Ki in assay [1] was found to be 1.2 nM; in assay [2] (setting [5]), 9.6 nM; in assay [2] (setting [6]), 9.6 nM; in assay [3], 307 nM. Moreover, the “γ2/γ1 Selectivity Ratio” value in assay [3] turned out to be 31.9. This molecule showed a LogSel in assay [3] of 1.50. In addition, in assay [4], the “Efficacy (GABA)%” value is 78%. For the same molecule, in assay [4], the “Fold increase h-GABA-A α2β2γ1 oocyte @ 30-fold Ki” value is 1.78.

Take `C[C@@H]1N=C(c2ncccc2F)c2c(ccc(Cl)c2Cl)-n2nc(C(=O)N3CC4(CCO4)C3)nc21` [Example 98, [(4S)-7,8-dichloro-6-(3-fluoro-2-pyridyl)-4-methyl-4H-[1,2,4]triazolo[1,5-a][1,4]benzodiazepin-2-yl]-(1-oxa-6-azaspiro[3.3]heptan-6-yl)methanone]: the affinity in assay [1] corresponds to a Ki of 29.8 nM. The molecule further displayed an inhibition constant (Ki) in assay [2] (setting [5]) of 81.7 nM. The molecule further gave an inhibition constant Ki in assay [2] (setting [6]) of 81.8 nM. In assay [3], the affinity corresponds to a Ki of 8110 nM, the “γ2/γ1 Selectivity Ratio” value was determined as 99.2 and the LogSel is 2.00. For the same molecule, in assay [4], the “Efficacy (GABA)%” value is reported as 158% and the “Fold increase h-GABA-A α2β2γ1 oocyte @ 30-fold Ki” value was determined as 2.58.

As to `CC1CN(C(=O)c2nc3n(n2)-c2ccc(Cl)c(Cl)c2C(c2ncccc2F)=N[C@H]3C)C1` [Example 87, [(4S)-7,8-dichloro-6-(3-fluoro-2-pyridyl)-4-methyl-4H-[1,2,4]triazolo[1,5-a][1,4]benzodiazepin-2-yl]-(3-methylazetidin-1-yl)methanone], the affinity in assay [1] corresponds to a Ki of 5.5 nM. This molecule also displayed a Ki in assay [2] (setting [5]) of 55.2 nM. For the same molecule, in assay [2] (setting [6]), the Ki worked out at 55.2 nM. In addition, in assay [3], affinity was put at a Ki of 3290 nM, the “γ2/γ1 Selectivity Ratio” value is recorded as 59.7 and the LogSel is listed as 1.78. For the same molecule, in assay [4], the “Efficacy (GABA)%” value is reported as 84% and the “Fold increase h-GABA-A α2β2γ1 oocyte @ 30-fold Ki” value turned out to be 1.84.

For the molecule `[2H]C([2H])([2H])NC(=O)c1nc2n(n1)-c1ccc(C(F)(F)F)c(Cl)c1C(c1c(F)cccc1F)=N[C@H]2C` [Example 34, (4S)-7-chloro-6-(2,6-difluorophenyl)-4-methyl-N-(trideuteriomethyl)-8-(trifluoromethyl)-4H-[1,2,4]triazolo[1,5-a][1,4]benzodiazepine-2-carboxamide], the Ki in assay [1] came to 2.11 nM. In assay [2] (setting [5]), this molecule had a Ki of 14.3 nM. For the same molecule, in assay [2] (setting [6]), the Ki came to 14.3 nM. Also, in assay [3], the Ki turned out to be 2180 nM, the “γ2/γ1 Selectivity Ratio” value turned out to be 152.4 and the LogSel amounted to 2.18. In assay [4], the “Efficacy (GABA)%” value is on record as 71% and the “Fold increase h-GABA-A α2β2γ1 oocyte @ 30-fold Ki” value was 1.71.

`[2H]C([2H])([2H])OC1CN(C(=O)c2nc3n(n2)-c2ccc(C(F)(F)F)c(Cl)c2C(c2ncccc2F)=N[C@H]3C)C1` [Example 104, [(4S)-7-chloro-6-(3-fluor-2-pyridyl)-4-methyl-8-(trifluoromethyl)-4H-[1,2,4]triazolo[1,5-a][1,4]benzodiazepin-2-yl]-[3-(trideuteriomethoxy)azetidin-1-yl]methanone] gave a Ki in assay [1] of 6.36 nM. In assay [2] (setting [5]), this molecule gave a Ki of 37.3 nM. Moreover, the Ki in assay [2] (setting [6]) worked out at 37.3 nM. In assay [3], the affinity corresponds to a Ki of 6300 nM, the “γ2/γ1 Selectivity Ratio” value worked out at 168.8 and the LogSel is 2.23. In assay [4], the “Efficacy (GABA)%” value was 117% and the “Fold increase h-GABA-A α2β2γ1 oocyte @ 30-fold Ki” value was found to be 2.17.

`C[C@@H]1N=C(c2ncccc2F)c2c(ccc(C(F)(F)F)c2Cl)-n2cc(C(=O)N[C@H]3C[C@H](O)C3)nc21` [Example 165, (4S)-7-chloro-6-(3-fluoro-2-pyridyl)-N-(trans-3-hydroxycyclobutyl)-4-methyl-8-(trifluoromethyl)-4H-imidazo[1,2-a][1,4]benzodiazepine-2-carboxamide] showed a Ki in assay [1] of 9.55 nM. The molecule also came in with a Ki in assay [2] (setting [5]) of 36.2 nM. Further, the affinity in assay [2] (setting [6]) corresponds to a Ki of 43.3 nM. Besides, in assay [3], the Ki was 7770 nM, the “γ2/γ1 Selectivity Ratio” value turned out to be 179.6 and the LogSel came to 2.25. In assay [4], the “Efficacy (GABA)%” value is 183% and the “Fold increase h-GABA-A α2β2γ1 oocyte @ 30-fold Ki” value is 2.83.

As for `C[C@@H]1N=C(c2c(F)cccc2F)c2c(ccc(Cl)c2Cl)-n2nc(S(C)(=O)=O)nc21` [Example 82, (4S)-7,8-dichloro-6-(2,6-difluorophenyl)-4-methyl-2-methylsulfonyl-4H-[1,2,4]triazolo[1,5-a][1,4]benzodiazepine], in assay [1], the Ki is 3.55 nM. In assay [2] (setting [5]), this molecule showed a Ki of 19.8 nM. In addition, the Ki in assay [2] (setting [6]) is 19.8 nM. In assay [3], the Ki was determined as 2130 nM, the “γ2/γ1 Selectivity Ratio” value was 107.3 and the LogSel was 2.03. Besides, in assay [4], the “Efficacy (GABA)%” value amounted to 75% and the “Fold increase h-GABA-A α2β2γ1 oocyte @ 30-fold Ki” value is 1.75.

Molecule `C[C@@H]1N=C(c2c(F)cccc2F)c2c(ccc(Cl)c2Cl)-n2nc(C(=O)NCCF)nc21` [Example 30, (4S)-7,8-dichloro-6-(2,6-difluorophenyl)-N-(2-fluoroethyl)-4-methyl-4H-[1,2,4]triazolo[1,5-a][1,4]benzodiazepine-2-carboxamide] registered a Ki in assay [1] of 1.39 nM. Further, the Ki in assay [2] (setting [5]) amounted to 7.2 nM. In addition, the Ki in assay [2] (setting [6]) was determined as 7.21 nM. Further, in assay [3], the inhibition constant Ki is 660 nM, the “γ2/γ1 Selectivity Ratio” value is recorded as 91.5 and the LogSel is recorded as 1.96. In assay [4], the “Efficacy (GABA)%” value amounted to 78% and the “Fold increase h-GABA-A α2β2γ1 oocyte @ 30-fold Ki” value came to 1.78.
